Experimental data: patent US6699716B2, “In vivo induction for enhanced function of isolated hepatocytes” (priority 1999, dated 2004)

Experiments:
[1] = test system: CYPIIB1; assay: PROD conversion to resorufin by in vivo induced hepatocytes; set-up: species or system porcine; details: for Degree of isozyme activity increase over noninduced control: PROD substrate, hepatocytes induced in vivo
Method: (§1) Cells were isolated using a modification of the Seglen method which has been described earlier (Seglen, P., Preparation of isolated rat liver cells, In Meth. in Cell. Bio. (D M Prescott, ed.), vol. 13. Academic Press (NY, N.Y.), 1976.). Briefly, the exposed liver was cannulated and perfused in situ with cold Lactated Ringers (Baxter, Deerfield, Ill.) at 250 ml/minute before excision and transport to the lab. The liver was quickly warmed and perfused with 0.2% EDTA at 37° C. This was followed by perfusion of 1 mg/ml collagenase (Life Technologies, Grand Island, N.Y.) at 37° C. until digestion appeared complete (mean digestion 22±4 min). Further digestion was stopped with the addition of cold HBSS (BioWhittaker, Walkersville, Md.) supplemented with 10% NBCS (Hyclone, Logan, Utah). Undigested tissue and gall bladder were excised and the remainder of the tissue passed through 200 and 100 micron stainless steel sieves (Fisher Scientific, Pittsburgh, Pa.). The cell suspension was washed twice and the cell pellet resuspended in culture media. Viability was determined by Trypan blue exclusion and Calcein AM staining (Molecular Probes, Eugene, Oreg.). Hepatocytes derived from the isolation process following in vivo induction show lower viability when compared to control conditions (77% n=7 versus 89% n=40), yet the cells detoxify xenobiotics at a greater rate. Immediately after isolation, 10^6 cells were assayed for total protein with the BCA kit (Pierce Biochemical, Rockford, Ill.).
(§2) Cells were plated onto 60 mm tissue culture dishes at a density of 2×10^6 cells per dish (Corning, Corning, N.Y.) in Williams' E media supplemented with 1% NBCS (newborn calf serum), 4.5 g/L glucose, 0.5 U/ml bovine insulin, 7 ng/ml glucagon, 7.5 μg/ml hydrocortisone, 10 mM HEPES (Sigma), 20 ng/ml EGF, […] (Life Technologies), 10 IU/ml penicillin and 10 μg/ml streptomycin (BioWhittaker). Hepatocytes were incubated at 37° C. in humidified 10% CO2. Culture medium was changed on day 1 post-isolation and then every 2-3 days. Media samples taken at each change were stored for assay of albumin and urea.

[2] = test system: CYPIA2; assay: 7-Ethoxycoumarin metabolism by in vivo induced hepatocytes; set-up: species or system porcine
[3] = test system: CYPIIB2; assay: BROD conversion to resorufin by in vitro induced hepatocytes; format: cell-based, porcine
Method: (§3) For comparison, in vitro induced hepatocyte cultures were prepared. Hepatocytes were procured using the method described above but from non-induced pigs and then induced in culture. Cells were plated onto 60 mm tissue culture dishes (Corning, Corning, N.Y.) in Williams' E media supplemented with 1% NBCS (newborn calf serum), 4.5 g/L glucose, 0.5 U/ml bovine insulin, 7 ng/ml glucagon, 7.5 μg/ml hydrocortisone, 10 mM HEPES (Sigma), 20 ng/ml EGF, […] (Life Technologies), 10 IU/ml penicillin and 10 μ/ml streptomycin (BioWhittaker). […]
(§4) To measure increased isozyme activity in both in vivo and in vitro induced cultures compared to non-induced controls, both in vivo induced and in vitro induced cultures from Example 1 were incubated with EROD, MROD, PROD or BROD (Molecular Probes) at 5 μM (in Williams' E media without serum and phenol red). […] Samples were analyzed in a Turner 450 fluorometer at 540ex and 585em nm. Resorufin formation was quantified using a standard curve that was linear from 0.5 to 130 nM and data are expressed as net resorufin gain over background fluorescence. In this assay, conversion of the alkoxyresorufins to resorufin corresponds to an increase in fluorescence such that the ratio of fluorescences, or activity, corresponds directly to the level of P450 activity of a particular set of isoenzymes.

[4] = test system: CYPIIB2 and CYPIIB1 isozymes; assay: Maintenance of isozyme function four days after plating of in vivo induced hepatocytes; details: in vivo induced with 40 to 80 mg/kg once each day, 4 doses
Method: (§5) To measure increased isozyme activity in both in vivo and in vitro induced cultures compared to non-induced controls, both in vivo induced and in vitro induced cultures from Example 1 were incubated with EROD, MROD, PROD or BROD (Molecular Probes) at 5 μM (in Williams' E media without serum and phenol red). Dicumarol (80 μM, Sigma) was included in the incubation to limit cytosolic degradation of the resorufin end product. Samples were analyzed in a Turner 450 fluorometer at 540ex and 585em nm. Resorufin formation was quantified using a standard curve that was linear from 0.5 to 130 nM and data are expressed as net resorufin gain over background fluorescence. In this assay, conversion of the alkoxyresorufins to resorufin corresponds to an increase in fluorescence such that the ratio of fluorescences, or activity, corresponds directly to the level of P450 activity of a particular set of isoenzymes.

[5] = test system: CYPIA2; assay: Lidocaine clearance by in vivo induced hepatocytes; set-up: species or system porcine; details: Lidocaine substrate (clearance), 40 to 80 mg/kg
Method: A series of in vivo induction studies utilized various doses and injection regimes ranging from 40 to 80 mg/kg on days −4 to −1 with phenobarbital in PBS; 3-methlycholanthrene (in DMSO or benzene);or, β-naphthoflavone (in DMSO) given at 5 to 15 mg/kg on days −3, −2 and/or −1 prior to surgical removal of the liver. Yorkshire/Hampshire crossbred pigs weighing 8.3±3.0 kg were obtained from E M Parsons (Hadley, Mass.). All injections of induction agents were administered into the peritoneal cavity.
Cells were isolated using a modification of the Seglen method which has been described earlier (Seglen, P., Preparation of isolated rat liver cells, In Meth. in Cell. Bio. (D M Prescott, ed.), vol. 13. Academic Press (NY, N.Y.), 1976.). […] Viability was determined by Trypan blue exclusion and Calcein AM staining (Molecular Probes, Eugene, Oreg.). […]
Lidocaine (Paddock Laboratories Inc., Minneapolis, Minn.) clearance was assayed using a modification of the protocol of Nyberg et al. Pharmacokinetic analysis verifies P450function in in vitro and in vivo application of a bioartificial liver, ASAIO, 39:M252-M256, 1993. […] The reverse phase HPLC was carried out with a flow rate of 1 ml/minute on a Microsorb C8 column (Rainin Instrument Co., Woburn, Mass.) at room temperature and monitored at 214 nm. […]

[6] = test system: CYPIIB1; assay: Diazepam clearance by in vivo induced hepatocytes; set-up: species or system porcine
Method: as §1, with “Ill.). […]” for “Ill.).”
Diazepam clearance was assayed in the cultures of Example 1 using a method similar to that of Jauregui et al. Xenobiotic induction of P-450 PB-4 (IIB1) and P-450c (IA1) and associated monooxygenase activities in primary cultures of adult rat hepatocytes. […] This reverse phase HPLC run was conducted at a flow rate of 1.0 ml/min through a micro-Bondpak C18 column (Waters) with absorbance set at 254 nm. […]

[7] = test system: CYPIIB2; assay: BROD conversion to resorufin by in vivo induced hepatocytes; set-up: species or system porcine
Method: as §1, §2

[8] = test system: CYPIIB1; assay: PROD conversion to resorufin by in vitro induced hepatocytes; format: cell-based, porcine
Method: as §3, §4

[9] = test system: CYPIA1; assay: EROD conversion to resorufin by in vivo induced hepatocytes; set-up: species or system porcine; details: for Degree of isozyme activity increase over noninduced control: EROD substrate, hepatocytes induced in vivo, 10 to 15 mg/kg
Method: as §1
Cells were plated onto 60 mm tissue culture dishes at a density of 2×10^6 cells per dish (Corning, Corning, N.Y.) in Williams' E media supplemented with 1% NBCS (newborn calf serum), 4.5 g/L glucose, 0.5 U/ml bovine insulin, 7 ng/ml glucagon, 7.5 μg/ml hydrocortisone, 10 mM HEPES (Sigma), 20 ng/ml EGF, […] (Life Technologies), 10 IU/ml penicillin and 10 μg/ml streptomycin (BioWhittaker). Hepatocytes were incubated at 37° C. in humidified 10% CO2. Culture medium was changed on day 1 post-isolation and then every 2-3 days. […]

[10] = test system: CYPIA1; assay: EROD conversion to resorufin by in vitro induced hepatocytes; format: cell-based, porcine
Method: For comparison, in vitro induced hepatocyte cultures were prepared. Hepatocytes were procured using the method described above but from non-induced pigs and then induced in culture. Cells were plated onto 60 mm tissue culture dishes (Corning, Corning, N.Y.) in Williams' E media supplemented with 1% NBCS (newborn calf serum), 4.5 g/L glucose, 0.5 U/ml bovine insulin, 7 ng/ml glucagon, 7.5 μg/ml hydrocortisone, 10 mM HEPES (Sigma), 20 ng/ml EGF, […] (Life Technologies), 10 IU/ml penicillin and 10 μ/ml streptomycin (BioWhittaker). Experimental conditions were treated with culture medium containing any one of the following: 2 mM phenobarbital (PB; Sigma) for 96 hours, 50 μM β-naphthoflavone (BNF; Sigma) for 24 hours, or 5 μM 3-methlycholanthrene (3-MC; Sigma) for 24 hours.
as §5

[11] = test system: CYPIA2; assay: MROD conversion to resorufin by in vivo induced hepatocytes; set-up: species or system porcine; details: for Degree of isozyme activity increase over noninduced control: MROD substrate, hepatocytes induced in vivo, 10 to 15 mg/kg
Method: as §5

[12] = test system: CYPIA2; assay: MROD conversion to resorufin by in vitro induced hepatocytes; format: cell-based, porcine; details: in vitro induction 5 μM for 24 hours; two million hepatocytes, day 2 of culture
Method: as §3, §4

[13] = three daily injections in vivo, day one of culture, 2x10^6 cells on 60 mm dish

Q: Which results are given for `CCC1(c2ccccc2)C(=O)NC(=O)NC1=O` [Phenobarbital, phenobarbital]?
A: Degree of isozyme activity increase over noninduced control ([1]; 40 to 80 mg/kg): 2 to 40-fold; upregulation following in vivo induction [1, 13]: 38 fold; Degree of isozyme activity increase over noninduced control ([2]; 7-EC substrate, hepatocytes induced in vivo, 40 to 80 mg/kg): 20 to 50-fold; umbelliferone production rate ([2]; in vivo induced, 24 hours after adding 7-ethoxycoumarin, noninduced 2.58±1.9): 346±41.4 nM per hour; increase in function over noninduced controls ([3]; in vitro induction 96 hours (2 mM), BROD, 3 hours incubation, day 4 of culture): 8.4 fold; rate of resorufin formation from the BROD substrate ([3]; in vitro induction, day 4): about 0.33 nM resorufin formed per minute; reduction of cytochrome P450 activity four days after plating [4]: about 50%; Degree of isozyme activity increase over noninduced control [5]: 10 to 20-fold; Degree of isozyme activity increase over noninduced control ([5]; listed as phenobarbital): 10 to 20 fold; Degree of isozyme activity increase over noninduced control ([6]; Diazepam substrate, 40 to 80 mg/kg): 20 to 50-fold; Degree of isozyme activity increase over noninduced control ([7]; BROD substrate, hepatocytes induced in vivo, 40 to 80 mg/kg): 20 to 100-fold; rate of resorufin formation from the BROD substrate ([7]; in vivo induction, day 1): approximately 10.4 nM resorufin per minute; increase in function following in vivo induction [7, 13]: 70 fold; rate relative to average control rate of resorufin formed on day 1 from BROD ([7]; versus control 0.15 nM per minute): 69 times; higher rate of PROD metabolism following treatment ([8]; in vitro induction 96 hours (2 mM), PROD, 3 hours incubation): 3 fold

Q: What does the source list for `O=c1cc(-c2ccccc2)oc2ccc3ccccc3c12` [Beta-Naphthoflavone, beta-naphthoflavone]?
A: Degree of isozyme activity increase over noninduced control [9]: 2 to 10-fold; increase in function over control metabolic conversion of EROD ([10]; in vitro induction 24 hours, 50 μM): 14.8 fold; resorufin formed per minute ([10]; in vitro induction 24 hours, 50 μM, EROD, control 0.27 nM): 4.0 nM; Degree of isozyme activity increase over noninduced control [11]: 2 to 10-fold

Q: Which results are given for `Cc1ccc2cc3c(ccc4ccccc43)c3c2c1CC3` [3-Methylcholanthrene, 3-methylcholanthrene]?
A: Degree of isozyme activity increase over noninduced control ([1]; 10 to 15 mg/kg): 2 to 10-fold; upregulation of CYPIIB1 (PROD) ([1]; in vivo administration): 8.4 fold; Degree of isozyme activity increase over noninduced control ([6]; Diazepam substrate (clearance), 10 to 15 mg/kg): 2 to 10-fold; Degree of isozyme activity increase over noninduced control ([6]; Diazepam substrate (clearance), 10 to 15 mg/kg, listed as 3-methlycholanthrene): 2 to 10 fold; Degree of isozyme activity increase over noninduced control [9]: 10 to 20-fold; increase over noninduced controls ([9]; in vivo induction, EROD): 24 fold; conversion rate relative to control rate ([10]; in vitro induction 5 μM for 24 hours, two million hepatocytes, day 2 of culture): 18 fold; Degree of isozyme activity increase over noninduced control [11]: 2 to 10-fold; increase over noninduced controls ([11]; in vivo induction, MROD): 7.6 fold; effect on CYPIIB1 (upregulation) ([8]; in vitro induction): not observed; conversion rate relative to control rate [12]: 4 fold
